Patent US20210363254A1, “PHARMACEUTICAL COMBINATIONS” (Novartis AG, priority 2018, published 2021)

Experiments:
[1] = test system: human SJSA-1 (osteosarcoma) xenograft; assay: TGI PK/PD modelling, human SJSA-1 (osteosarcoma) xenograft rat; assay type: in vivo; conditions: human SJSA-1 xenograft rat; for Average concentration for tumor stasis: TGI PK/PD modelling
Protocol: To further support the preferred dose for HDM201, compartmental PK modeling was used to estimate the individual average concentration per cycle for the 9 patients treated at 120 mg on regimen 1B (FIG. 15). For the majority of patients (7 out of 9), the estimated average drug concentrations per cycle were near or above the most conservative average tumor stasis concentration of ˜41 ng/mL per cycle determined from PKPD modeling of preclinical data (human SJSA-1 xenograft rat model).
Compartmental population PK modeling of NVP-HDM201 was used to estimate the individual average plasma concentration for Cycle 1 and to allow comparison with preclinical average concentration for tumor stasis derived by PK/PD tumor growth modeling. […] The dashed line at concentration of ≈19 ng/mL represents average tumor stasis determined from PK/PD modeling of preclinical data from a liposarcoma (HSAX2655) patient-derived xenograft rat model.

[2] = test system: AH1-specific CD8+ T cells; assay: Anti-tumor memory T cell responses: IFN-γ ELISPOT with AH1 peptide and H2Ld-AH1 dextramers on splenocytes; assay type: cell-based, mouse
Text: Consistent with this, we observed an increase in frequency of AH1-specific CD8^+ T cells in spleens of mice treated with HDM201 or combination of HDM201 with anti-PD1 antibody induced responders as detected by H2Ld-AH1 dextramers. (FIGS. 28 and 29).

Colon 26 tumors = assay: Anti-tumor activity in Colon 26 syngeneic tumor model (8020 Colon 26-XEF); assay type: in vivo, mouse
Protocol: (§1) Time to endpoint. Balb/c mice were implanted with 2×10^5 Colon 26 cells subcutaneously. Mice were treated with HDM201 at 40 mg/kg×3 for every 3h po on Days 12, 19 and 26 post cell implant, and the aPD-1 antibody at 5 mg/kg ip on days 12, 15, 19, and 22. End point was defined as tumor volume equal or greater than 1000 mm^3. Log Rank, p<0.05.
as §1, with “FIG. 25: Individual Tumor Growth Curves (8020 Colon 26-XEF) Individual tumor growth curves.” for “Time to endpoint.”, “equal to” for “equal”, “The horizontal dashed line indicates the tumor endpoint tumor size (1000 mm^3).” for “Log Rank, p<0.05.”
Colon 26 cells were harvested at 80-95% confluence, washed, and re-suspended in cold PBS at a concentration of 2×10^6 cells/ml. Finally, 0.2×10^6 cells in a total volume of 100 μL were implanted subcutaneously (sc) into the upper right flank of naive Balb/c mice.
For Study 8020 Colon 26-XEF, animals were randomized and enrolled onto the study when tumor volumes reached a range of 27-60 mm^3 on day 10 post cell implantation. All treatments were initiated three days later on day 13. For the PD studies, animals were randomized when the mean tumor volume reached 100˜120 mm^3.
The designs of studies 7628 Colon 26-XPD, 8063 Colon 26-XPD and 8020 Colon 26-XEF including dose and schedule for treatment groups are summarized in Tables Ex3.2 to Ex3.4. Animals were weighed on dosing day(s) and the dosing volume was adjusted to body weight to 10 ml/kg. Tumor dimensions and body weights were recorded at the time of randomization and twice weekly thereafter for the study duration. The following data were collected after each day of data collection: incidence of mortality, individual and group average body weights, and individual and group average tumor volume.
Percent treatment/control (% T/C) and percent regression (% Reg) values were calculated using the following formulas, respectively:
% Reg=100×ΔT/Tinitial if ΔT<0 […]
A Kaplan-Meier survival analysis was performed to compare differences in time to endpoint (TTE). Mice were scored as achieving tumor endpoint once tumor volume exceeded 1000 mm^3 and scored as dead (“1”). […]
The anti-tumor activity of HDM201 with aPD1 antibody targeting the PD-1/PD-L1 axis was explored in the Colon 26 murine syngeneic model (8020 Colon 26-XEF). […] Tumor growth delay was assessed as median time to endpoint using the Kaplan-Meier analysis (GraphPad v7.0).

SMILES: COc1ncc(-c2nc3c(n2C(C)C)[C@H](c2ccc(Cl)cc2)N(c2cc(Cl)cn(C)c2=O)C3=O)c(OC)n1 [HDM201, (S)-5-(5-Chloro-1-methyl-2-oxo-1,2-dihydro-pyridin-3-yl)-6-(4-chloro-phenyl)-2-(2,4-dimethoxy-pyrimidin-5-yl)-1-isopropyl-5,6-dihydro-1H-pyrrolo[3,4-d]imidazol-4-one]
- Average concentration for tumor stasis [1]: ~41 ng/mL
- Average concentration for tumor stasis ([1]; listed as NVP-HDM201): ≈ 41 ng/mL
- average concentration for 95% tumor regression [1]: 120 ng/mL
- average concentration for 95% tumor regression ([1]; listed as NVP-HDM201): 125 ng/mL
- frequency of AH1-specific CD8+ T cells in spleens (H2Ld-AH1 dextramers) ([2]; responder mice): increase
- antigen-specific production of IFN-γ by T cells (ELISPOT) ([2]; splenocytes of responder mice stimulated with AH1 peptide): detected in all responders
- animals with partial response (Colon 26 tumors; 10 mice per group): 1/10
- complete tumor regression / complete responses (CR), animals (Colon 26 tumors; 10 mice per group, HDM201 40 mg/kg 3×q3h po weekly, aPD1 Ab 5 mg/kg ip): no CR
- tumor growth (Colon 26 tumors; HDM201 40 mg/kg): inhibited tumor growth
- median time to endpoint (TV≥1000 mm^3), Kaplan-Meier (Colon 26 tumors; HDM201 40 mg/kg 3×q3h po weekly, aPD1 Ab 5 mg/kg ip, vehicle 23 days): 31.5 days
